Patent US12103936B2, “Crystal form of hepatitis B surface antigen inhibitor” (FUJIAN AKEYLINK BIOTECHNOLOGY CO., LTD., priority 2018, dated 2024)
pEC50: −log10 of the molar value.

Tests used:
[1] = test system: HBV-DNA; assay: HBV in vitro test in HepG2.2.15 cells, HBV-DNA by quantitative PCR; type: cell-based; conditions: Hepatitis B virus, 192 h, culture medium collected on day 8, read-out: EC50 against HBV-DNA
Description: (§1) 1. Cell Line: HepG2.2.15 Cells
(§2) • Pancreatin (Invitrogen-25300062) • DPBS (Corning-21031CVR) • DMSO (Sigma-D2650-100 mL) • High-throughput DNA purification kit (QIAamp 96 DNA Blood Kit, Qiagen-51162) • Quantitative quick start universal probe reagent (FastStart Universal Probe Master, Roche-04914058001) • Hepatitis B surface antigen quantitative test kit (Autobio, CL0310) 3. Consumables and Instruments: • 96-well cell culture plate (Cornin-3599) • CO2 incubator (HERA-CELL-240) • Optical sealing film (ABI-4311971) • Quantitative PCR 96-well plate (Applied Biosystems-4306737) • Fluorescence quantitative PCR instrument (Applied Biosystems-7500 real time PCR system) Experimental Methods: • 1. HepG2.2.15 cells (4×10^4 cells/well) were seeded to a 96-well plate and cultured overnight at 37° C., 5% CO2. • 2. On the day 2, the compound was diluted to a total of 8 concentrations, with a 3-fold gradient dilution. Different concentrations of compounds were added into the culture wells in duplicate wells. The final concentration of DMSO in the culture medium was 0.5%. 10 μM ETV (Entecavir) was used as a 100% inhibition control; 0.5% DMSO was used as a 0% inhibition control. • 3. […]
(§3) 50 μL of sample and standard were added into a reaction plate respectively, followed by addition of 50 μL of enzyme conjugate into each well. […] Chemoluminescence intensity was determined by an ELISA finally. • 9.

[2] = test system: HBsAg; assay: HBV in vitro test in HepG2.2.15 cells, hepatitis B surface antigen by ELISA; type: cell-based; conditions: Hepatitis B virus, HepG2.2.15, 192 h, read-out: EC50 against HBsAg
Description: as §1, §2, §3

[3] = test system: HBsAg; assay: In vivo efficacy study in AAV/HBV mice model, HBsAg content in serum; parameters: species or system C57BL/6 mice; conditions: PO
Source text: C57BL/6 mice, 10% HP-β-CD as vehicle, TDF ([…]) as refer compound, the compound of formula (I), and recombinant virus rAAV8-1.3HBV.
The reagents of the present project mainly included QIAamp96 DNA kit and TaqMan® Universal PCR Master Mix, hepatitis B surface antigen test kit.
The instrument included centrifuge (Beckman Allegra X-15R), tissue grinder (QIAGEN-Tissue lyser II) and spectrophotometer (Thermo-NANODROP 1000).
• a) All mice were administrated orally on the day 28 after being injected with virus, the day of administration was designated as day 0. Before administration, serum was collected by submandibular blood sampling for all mice. The mice were administration once a day for four weeks. The detailed dosage regimen was shown in Table 3. • b) Serum was collected by submandibular blood sampling for all mice twice a week, with each sampling volume being approximately 100 μL. The detailed blood sampling time is shown in Table 3. • c) On the day 28, all mice were euthanized and the blood was collected from the heart for serum collection. • d) All serum samples were sent for analysis.
The anti-HBV activity of the test compound in AAV/HBV mice model was evaluated by determining the content of HBsAg in the serum of the mice.

[4] = test system: HBV-DNA; conditions: woodchuck model, single drug; cited from earlier work
[5] = test system: surface antigens; conditions: woodchuck model, single drug; cited from earlier work
[6] = 10 mg/kg, detection date day 11
[7] = 10 mg/kg, detection date day 14
[8] = 10 mg/kg, detection date day 18
[9] = 10 mg/kg, detection date day 21
[10] = 10 mg/kg, detection date day 25
[11] = 10 mg/kg, detection date day 28
[12] = 10 mg/kg, detection date day -1

With COCCCOc1cc2c(cc1OC)-c1cc(=O)c(C(=O)O)cn1[C@H](C(C)(C)C)CO2 [the compound of formula (I)] as the compound, how does the pEC50 [1] read?
The pEC50 was 8.59.

What about the pEC50 [2] of the same compound?
The pEC50 was 8.41.

What about the “HBsAg content in mice” value ([3]; 3 mg/kg, detection date day 4) of the same compound?
Its value is 3.68 IU/mL.

What about the “HBsAg content in mice” value ([3]; 3 mg/kg, detection date day 7) of the same compound?
The value was 3.70 IU/mL.

What about the “HBsAg content in mice” value ([3]; 3 mg/kg, detection date day 11) of the same compound?
The value was 3.76 IU/mL.

What about the “HBsAg content in mice” value ([3]; 3 mg/kg, detection date day 14) of the same compound?
The value was 3.70 IU/mL.

What about the “HBsAg content in mice” value ([3]; 3 mg/kg, detection date day 18) of the same compound?
The value was 3.85 IU/mL.

What about the “HBsAg content in mice” value ([3]; 3 mg/kg, detection date day 21) of the same compound?
The value was 3.78 IU/mL.

What about the “HBsAg content in mice” value ([3]; 3 mg/kg, detection date day 25) of the same compound?
Its value is 3.76 IU/mL.

And the “HBsAg content in mice” value ([3]; 3 mg/kg, detection date day 28)?
Its value is 3.96 IU/mL.

What about the “HBsAg content in mice” value ([3]; 3 mg/kg, detection date day -1) of the same compound?
The value was 4.54 IU/mL.

And the “HBsAg content in mice” value ([3]; 10 mg/kg, detection date day 4)?
Its value is 3.56 IU/mL.

What about the “HBsAg content in mice” value ([3]; 10 mg/kg, detection date day 7) of the same compound?
The value was 3.69 IU/mL.

And the “HBsAg content in mice” value [3, 6]?
The value was 3.92 IU/mL.

What about the “HBsAg content in mice” value [3, 7] of the same compound?
The value was 3.61 IU/mL.

What about the “HBsAg content in mice” value [3, 8] of the same compound?
The value was 3.90 IU/mL.

What about the “HBsAg content in mice” value [3, 9] of the same compound?
Its value is 3.75 IU/mL.

And the “HBsAg content in mice” value [3, 10]?
Its value is 3.83 IU/mL.

And the “HBsAg content in mice” value [3, 11]?
The value was 3.87 IU/mL.

And the “HBsAg content in mice” value [3, 12]?
Its value is 4.51 IU/mL.

And the “HBsAg content in mice” value ([3]; 30 mg/kg, detection date day 4)?
Its value is 3.38 IU/mL.

And the “HBsAg content in mice” value ([3]; 30 mg/kg, detection date day 7)?
Its value is 3.44 IU/mL.

And the “HBsAg content in mice” value ([3]; 30 mg/kg, detection date day 11)?
The value was 3.64 IU/mL.

And the “HBsAg content in mice” value ([3]; 30 mg/kg, detection date day 14)?
Its value is 3.40 IU/mL.

What about the “HBsAg content in mice” value ([3]; 30 mg/kg, detection date day 18) of the same compound?
The value was 3.55 IU/mL.

And the “HBsAg content in mice” value ([3]; 30 mg/kg, detection date day 21)?
The value was 3.46 IU/mL.

What about the “HBsAg content in mice” value ([3]; 30 mg/kg, detection date day 25) of the same compound?
Its value is 3.37 IU/mL.

And the “HBsAg content in mice” value ([3]; 30 mg/kg, detection date day 28)?
Its value is 3.53 IU/mL.

What about the “HBsAg content in mice” value ([3]; 30 mg/kg, detection date day -1) of the same compound?
Its value is 4.48 IU/mL.

With COCCCOc1cc2c(cc1OC)-c1cc(=O)c(C(=O)O)cn1[C@H](C(C)C)C2 [RG7834, reference compound] as the compound, how does the “reduction of HBV-DNA” value [4] read?
Its value is 1.7 Log.

What about the “HBsAg content in mice” value ([3]; 10 mg/kg, detection date day 4) of the same compound?
Its value is 3.54 IU/mL.

What about the “HBsAg content in mice” value ([3]; 10 mg/kg, detection date day 7) of the same compound?
Its value is 3.58 IU/mL.

What about the “HBsAg content in mice” value [3, 6] of the same compound?
Its value is 3.70 IU/mL.

What about the “HBsAg content in mice” value [3, 7] of the same compound?
The value was 3.49 IU/mL.

And the “HBsAg content in mice” value [3, 8]?
Its value is 3.70 IU/mL.

What about the “HBsAg content in mice” value [3, 9] of the same compound?
Its value is 3.52 IU/mL.

And the “HBsAg content in mice” value [3, 10]?
The value was 3.50 IU/mL.

And the “HBsAg content in mice” value [3, 11]?
The value was 3.66 IU/mL.

And the “HBsAg content in mice” value [3, 12]?
The value was 4.56 IU/mL.

And the “reduction of surface antigens” value [5]?
Its value is 2.57 Log.
